Assay results as given in patent publication US10166249B2, “Substituted bicyclic compounds” (BRISTOL-MYERS SQUIBB COMPANY, priority 2014, dated 2019).
Entries after “also recorded” stand apart in the source; their conditions may differ. Where two headings read alike, the source gives them in different places.

Tests used:
S1P1 [1] = biological target: T1, S1P1 (Homo sapiens (Human), UniProt P21453); assay: Receptor [35S] GTPγS binding assay (S1P1 GTPγS), membranes from S1P1/CHO cells; format: biochemical; details: for activity as an agonist of S1P1: result in words
T1 sequence (P21453 whole entry): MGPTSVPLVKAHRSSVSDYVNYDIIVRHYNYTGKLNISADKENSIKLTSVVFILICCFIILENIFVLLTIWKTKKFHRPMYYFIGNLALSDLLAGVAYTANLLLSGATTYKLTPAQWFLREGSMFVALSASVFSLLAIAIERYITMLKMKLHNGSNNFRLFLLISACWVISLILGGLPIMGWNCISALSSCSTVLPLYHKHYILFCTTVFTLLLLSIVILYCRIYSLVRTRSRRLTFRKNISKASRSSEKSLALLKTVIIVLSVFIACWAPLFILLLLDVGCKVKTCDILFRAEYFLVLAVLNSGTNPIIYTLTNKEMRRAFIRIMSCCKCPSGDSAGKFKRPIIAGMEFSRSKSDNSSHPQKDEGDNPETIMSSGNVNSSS
Description: (§1) Receptor [^35S] GTPγS Binding Assays: (S1P1 GTPγS/S1P3 GTPγS)
(§2) Membranes prepared from S1P1/CHO cells or EDG3-Gal5-bla HEK293T cells (EDG3 equivalent S1P3) were added to the compound plate ([…], final protein 3 μg/well) with MULTIDROP®. [^35S]GTP (1250 Ci/mmol, Perkin Elmer) was diluted in assay buffer: 20 mM HEPES, pH7.5, 10 mM MgCl2, 150 mM NaCl, 1 mM EGTA (ethylene glycol tetraacetic acid), 1 mM DTT (Dithiothreitol), 10 μM GDP, 0.1% fatty acid free BSA, and 10 μg/ml Saponin to 0.4 nM. 40 μl of the [^35S] GTP solution was added to the compound plate with a final concentration of 0.2 nM. The reaction was kept at room temperature for 45 min. At the end of incubation, all the mixtures in the compound plate were transferred to Millipore 384-well FB filter plates via the VELOCITY11® Vprep liquid handler. The filter plate was washed with water 4 times by using the manifold Embla plate washer and dried at 60° C. for 45 min. MicroScint 20 scintillation fluid (30 μl) was added to each well for counting on the Packard TOPCOUNT®.
A larger value for the GTPγS S1P3 EC50 value indicated less activity in the GTPγS S1P3 binding assay.

S1P3 (EDG3) = S1P3 (EDG3) (Homo sapiens (Human), UniProt Q99500); assay: Receptor [35S] GTPγS binding assay (S1P3 GTPγS), membranes from EDG3-Gal5-bla HEK293T cells; format: biochemical
Chain of S1P3 (EDG3) (Q99500 whole entry): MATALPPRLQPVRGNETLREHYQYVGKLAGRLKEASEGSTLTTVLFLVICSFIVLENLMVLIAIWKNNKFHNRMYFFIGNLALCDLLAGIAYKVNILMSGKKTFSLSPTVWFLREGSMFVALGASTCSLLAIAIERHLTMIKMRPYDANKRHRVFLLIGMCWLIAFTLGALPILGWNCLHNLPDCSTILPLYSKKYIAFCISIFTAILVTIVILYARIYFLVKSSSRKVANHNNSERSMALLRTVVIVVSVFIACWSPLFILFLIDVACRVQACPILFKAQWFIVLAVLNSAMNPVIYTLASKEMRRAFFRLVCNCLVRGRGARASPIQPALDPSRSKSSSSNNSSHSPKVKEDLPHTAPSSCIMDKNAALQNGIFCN
Description: as §1
as §2, with “Compounds were loaded in a 384 Falcon v-bottom plate ([…] in a 11 point, 3-fold dilution). Membranes” for “Membranes”
A smaller value for GTPγS S1P1 EC50 value indicated greater activity for the compound in the GTPγS S1P1 binding assay. A larger value for the GTPγS S1P3 EC50 value indicated less activity in the GTPγS S1P3 binding assay. […]

S1P1 [2] = biological target: T1, S1P1; assay: S1P1 binding assay (33P-S1P radioligand competition, membranes from CHO cells)
Description: Membranes were prepared from CHO cells expressing human S1P1. Cells pellets (1×10^9 cells/pellet) were suspended in buffer containing 20 mM HEPES (4-(2-hydroxyethyl)-1-piperazineethanesulfonic acid), pH 7.5, 50 mM NaCl, 2 mM EDTA (Ethylenediaminetetraacetic acid) and Protease Inhibitor cocktail (Roche), and disrupted on ice using the Polytron homogenizer. The homogenate was centrifuged at 20,000 rpm (48,000 g) and the supernatant was discarded. The membrane pellets were resuspended in buffer containing 50 mM HEPES, pH 7.5, 100 mM NaCl, 1 mM MgCl2, 2 mM EDTA and stored in aliquots at −80° C. after protein concentration determination.

[3] = system: rat adjuvant-induced arthritis model (hind paw volume); assay: Rat Adjuvant Induced Arthritis Assay (AA); format: in vivo, Lewis rats; details: Lewis rat, prophylactic oral dosing regimen
Description: Rat Adjuvant Induced Arthritis Assay (AA)
The rat adjuvant-induced arthritis model is an animal model for human rheumatoid arthritis.
Male Lewis rats (150-175 g; Harlan, n=8 treatment group) were immunized at the base of the tail with 100 μl of 10 mg/ml freshly ground Mycobacterium butyricum (Difco Laboratories) in incomplete Freund's adjuvant (sigma). Animals were dosed once daily with the test article (as a solution or suspension in the vehicle) or vehicle alone (polyethylene glycol 300, “PEG300”) starting from the day of immunization. The volumes of their hind paws were measured in a water displacement plethysmometer (Ugo Basile, Italy). The baseline paw measurements were taken before onset of the disease (between day 7 to day 10). The paw measurements were then taken three times a week until the end of the study on day 20 to 21. All procedures involving animals were reviewed and approved by the Institutional Animal Care Use Committee.

[4] = system: mouse EAE model (clinical score); assay: Mouse Experimental Autoimmune Encephalomyelitis Assay (EAE); format: in vivo; details: C57Bl/6 mice, prophylactic oral dosing regimen
Description: Mouse Experimental Autoimmune Encephalomyelitis Assay (EAE)
Mice (C57BL/6 female, 6-8 weeks of age, Charles River, n=10 treatment group) were immunized subcutaneously with 150 μg MOG35-55 emulsified 1:1 with incomplete Freund's adjuvant (sigma) supplemented with 150 μg Mycobacterium tuberculosis H37RA (Difco Laboratories). 400 ng of pertussis toxin (CalBiochem) was injected intraperitoneally on the day of immunization and 2 day later. Clinical scoring and body weight were taken 3 times per week. Clinical scoring system: 0.5: partial tail weakness; 1: limp tail or waddling gait with tail tonicity; 1.5: waddling gait with partial tail weakness; 2: waddling gait with limp tail (ataxia); 2.5: ataxia with partial limb paralysis; 3: full paralysis of one limb; 3.5: full paralysis of one limbs with partial paralysis of a second limb; 4: full paralysis of two limbs; 4.5: moribund; 5: death. Mean clinical score was calculated by averaging the scores of all mice in each group. All procedures involving animals were reviewed and approved by the Institutional Animal Care Use Committee.

[5] = system: rat EAE model (clinical score); assay: Rat Experimental Autoimmune Encephalomyelitis (EAE); format: in vivo, Lewis rats; details: Lewis rat; for Clinical Score on Day 11 (Mean): rat EAE, prophylactic oral dosing
Description: Rat Experimental Autoimmune Encephalomyelitis (EAE):
Female Lewis rats (150-200 g; Harlan) were immunized at the base of the tail with 0.1 ml of a complete Freund's adjuvant emulsion containing 0.5 mg/mL guinea pig myelin basic protein (Genemed Synthesis) and 2 mg/mL Mycobacterium butyricum (Difco). Beginning on Day 7, rats (n=11/group) were scored individually at least 3×/wk according to the following scheme:
Average clinical scores were calculated for each treatment group on each day of assessment.

[6] = system: MRL/lpr spontaneous lupus model; assay: MRL/lpr Lupus Model (anti-dsDNA antibody titers, kidney histology); format: in vivo; details: MRL/lpr mice, p.o. daily, 0.06, 0.3, 1.5 mg/kg
Source text: MRL/lpr Lupus Model: MRL/lpr is a spontaneous model of lupus. Male MRL/lpr mice (Jackson Laboratory) at the age of 12-14 weeks were enrolled for the study (N=12). […] Mice were bled every other week for anti-dsDNA antibodies measured by ELISA using pooled serum from diseased MRL/lpr mice as a positive comparator in each assay. The data were expressed in arbitrary units as a ratio of the titer of the test serum to the titer of the pooled MRL/lpr immune serum. At the end of study, one kidney was collected into 10% neutral buffered formalin and ZincTris fixatives. Fixed tissues were processed into paraffin blocks, sectioned at 3 μm, and stained with H&E or PASH. Kidney sections were graded using following criteria: Glomerular Damage: 1. Mesangial matrix thickening, cell proliferation, 2. Crescent formation, cellular deposits/casts in Bowman's space, 3. Cellular infiltration, mononuclear cells in glomerular tufts, 4. Fibrosis of Bowman's capsule. Tubular damage: 1. Infiltration of mononuclear cells, 2. Severity of tubular damage, 3. Protein casts. Tubulo-interstitial damage: 1. Fibrosis, 2. Infiltration of mononuclear cells. Each subcategory was assigned a score from 0-4, with the scores for glomerular indices representing the mean from 20 glomeruli per kidney. The total score for each mouse was the sum of the above 9 subcategories, with the highest possible score=36.

hS1P1 = hS1P1 (Homo sapiens (Human), UniProt P21453); assay: hS1P1 ERK phosphorylation (S1P1 pERK) in hS1P1/CHO cells; format: cell-based; details: phosphate examples
Chain of hS1P1 (P21453 whole entry): as the sequence (P21453 whole entry) above
Description: hS1P1 ERK Phosphorylation (S1P1 pERK)
hS1P1/CHO cells were plated into BD Amine 384-well plates the day before the assay. On the day of the assay, growth medium was removed and replaced with serum-free medium (Ham's F-12 Invitrogen) and incubated for 2 hours. Test compounds pre-diluted in HBSS (Gibco)/20 mM HEPES (Gibco) were transferred to the cell plates and incubated for 7 minutes at 37° C. Cells were lysed in lysis buffer (Perkin Elmer) and phospho-ERK was measured using the SureFire pERK kit (Perkin Elmer) as described by the manufacturer. Data was plotted as percentage activation of the test compound relative to the efficacy of 10 μM S1P.

[7] = membranes from S1P1/CHO cells, read-out: GTPγS S1P1 EC50
[8] = 33P-S1P competition, membranes from CHO cells expressing human S1P1, read-out: S1P1 Binding IC50

With `COCCCCCC1CCc2cc([C@H]3CC[C@](N)(COP(=O)(O)O)C3)ccc2C1` (single isomer, unassigned) [Example 689] the “activity as an agonist of S1P1” value (S1P1 [1]) was “possessed activity as an agonist of S1P1” and the “selectivity over S1P3” value (S1P3 (EDG3); result in words, S1P1 versus S1P3 GTPγS) was “selective over S1P3”.

`COCCCCCC1CCc2cc([C@@H]3CC[C@](N)(COP(=O)(O)O)C3)ccc2C1` (single isomer, unassigned) [Example 692] was tested, and the EC50 (S1P1 [1]; [7]) was 4.4 nM.

`COc1cccc(CCC2CCc3cc([C@H]4CC[C@](N)(COP(=O)(O)O)C4)ccc3C2)c1` (single isomer, unassigned) [Example 693] gave an IC50 (S1P1 [2]; [8]) of 5.2 nM and an EC50 (S1P1 [1]; [7]) of 19.2 nM.

With `CCOCCCC1CCc2cc([C@H]3CC[C@](N)(COP(=O)(O)O)C3)ccc2C1` (single isomer, unassigned) [Example 695] the IC50 (S1P1 [2]; [8]) was 119 nM and the EC50 (S1P1 [1]; [7]) was 49 nM.

`COc1ccccc1CCC1CCc2cc([C@H]3CC[C@](N)(COP(=O)(O)O)C3)ccc2C1` (single isomer, unassigned) [Example 697] was tested, and the “activity as an agonist of S1P1” value (S1P1 [1]) was “possessed activity as an agonist of S1P1”.

`COCCCCC[C@H]1CCc2cc([C@H]3CC[C@](N)(CO)C3)ccc2C1` [Example 672, ((1R,3S)-1-amino-3-((S)-6-(5-methoxypentyl)-5,6,7,8-tetrahydronaphthalen-2-yl)cyclopentyl)methanol] was tested, and the “inhibition of disease progression as measured by reduced paw swelling” value [3] was “showed inhibition of disease progression”.

In the case of `CCOCCC[C@@H]1CCc2cc([C@H]3CC[C@](N)(CO)C3)ccc2C1` [Example 679, ((1R,3S)-1-amino-3-((S)-6-(3-ethoxypropyl)-5,6,7,8-tetrahydronaphthalen-2-yl)cyclopentyl)methanol], the “inhibition of disease progression as measured by reduced paw swelling” value [3] is reported as “showed inhibition of disease progression”, the “inhibition of disease progression as measured by clinical scores” value [4] is reported as “showed inhibition of disease progression; also recorded: inhibit disease progression” and the “inhibition of disease progression as measured by reduced clinical scores” value ([5]; prophylactic oral dosing regimen) is reported as “showed inhibition of disease progression”. For the same compound, the “Clinical Score on Day 11 (Mean)” value ([5]; 0.3 mg/kg) was 0.36, the “Clinical Score on Day 11 (Mean)” value ([5]; 1.0 mg/kg) was 0.09 and the “Clinical Score on Day 11 (Mean)” value ([5]; 3.0 mg/kg) was 0.02.

For `COc1ccccc1CC[C@@H]1CCc2cc([C@H]3CC[C@](N)(CO)C3)ccc2C1` [Example 681, ((1R,3S)-1-amino-3-((S)-6-(2-methoxyphenethyl)-5,6,7,8-tetrahydronaphthalen-2-yl)cyclopentyl)methanol], the “inhibition of disease progression as measured by clinical scores” value [4] was “showed inhibition of disease progression; also recorded: inhibit disease progression” and the “inhibition of disease progression as measured by anti-dsDNA titers and kidney histology” value [6] was “showed inhibition of disease progression”.

In the case of `CCC/C=C/CO[C@@H]1CCc2cc([C@H]3CC[C@](N)(COP(=O)(O)O)C3)ccc2C1` [compound 439], the IC50 (S1P1 [2]; phosphate examples, read-out: S1P1 Binding) is reported as less than 10 nM, the EC50 (S1P1 [1]; phosphate examples, read-out: S1P1 GTPγS) is reported as 10 to 100 nM and the EC50 (S1P3 (EDG3); phosphate examples) is reported as greater than 625 nM. For the same compound, the EC50 (hS1P1) was less than 10 nM.
